Reference: US12577232B2, “N-heterocycle substituted tryptamine derivatives and methods of using” (ENVERIC B[…] INC., priority 2024, dated 2026)
Several values for one entry are separate records, joined by “and”; a condition that tells them apart may be missing. Equal values may be shown once.

Experiments:
[1] = molecular target: T1, 5-HT2A receptor (Homo sapiens, UniProt P28223); experiment: 5-HT2A receptor radioligand competition assay (SPA, [3H]ketanserin); type: binding; conditions: 1 nM [3H]ketanserin; membranes containing 5-HT2A; read-out: 5-HT2A, Ki
T1 construct: purchased PerkinElmer ES-313-M400UA
T1 sequence (P28223 whole entry): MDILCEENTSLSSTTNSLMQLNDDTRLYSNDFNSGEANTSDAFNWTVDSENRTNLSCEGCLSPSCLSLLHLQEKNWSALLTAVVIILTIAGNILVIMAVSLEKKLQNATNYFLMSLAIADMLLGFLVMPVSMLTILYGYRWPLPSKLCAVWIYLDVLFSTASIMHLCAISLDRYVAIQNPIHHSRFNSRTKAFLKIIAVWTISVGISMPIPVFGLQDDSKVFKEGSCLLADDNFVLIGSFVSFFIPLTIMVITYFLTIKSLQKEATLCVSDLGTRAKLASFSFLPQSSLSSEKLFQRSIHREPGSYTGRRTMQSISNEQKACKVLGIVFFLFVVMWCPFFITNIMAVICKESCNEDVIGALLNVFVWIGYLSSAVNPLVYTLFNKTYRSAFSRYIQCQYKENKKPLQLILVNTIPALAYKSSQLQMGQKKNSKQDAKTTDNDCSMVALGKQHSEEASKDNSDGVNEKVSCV
Description: Competition assays were performed as for 5-HT1A assays with the following differences. […] Determination of non-specific binding was carried out in the presence of […] of spiperone (S7395-250MG, Sigma-Aldrich). Equilibrium binding constant for ketanserin (Kd) was determined from saturation binding curves using the ‘one-site saturation binding analysis’ method in GraphPad PRISM software (Version 9.2.0).

[2] = system: C57BL/6 mice; experiment: Mouse Head Twitch Response (HTR) assay to assess hallucinogenic potential; type: in vivo; conditions: 3 mg/kg i.p.; for mean HTR: 0-15 min interval (preliminary screening); for HTR compared with the HTR response for 5-Br-DMT (one-way ANOVA, Dunnett): alpha 0.05
Description: All experiments were approved by the University of Calgary Animal Care and Use Committee in accordance with Canadian Council on Animal Care guidelines. C57BL/6-Elite mixed sex mice were obtained from Charles River (8 weeks old). Until the first experiment, mice were group-housed, then single-housed on a 12:12 h light/dark schedule (lights on at 07:00 hours) with ad libitum access to food and water. Before any behavioral screening, mice were handled and exposed to the testing chamber for at least 5 min each day for three successive days and habituated to the experimental room 1 h before testing. The testing chamber was cleaned with a 70% ethanol solution between experiments to eliminate odor from other mice. Drug compounds (100 mM in DMSO) were diluted in sterile excipient (10% EtOH/15% PEG400 in ddH2O) to 3 mg/kg (preliminary screening) or 0.5, 2, 4, 7, and 10 mg/kg (dose-curve analysis) and administered using intraperitoneal (i.p.) drug injections. […] HTR was analyzed during the 0-to-15-minute window following drug administration. […] Mean HTR between 10 and 5 signifies reduced hallucinogenic potential relative to positive controls.

[3] = system: human model (NT2) neurons; experiment: Neuroplastogenicity (neurite outgrowth) assay in NT2 neurons; type: cell-based; set-up: key: a positive (+) designation indicating strong evidence of enhanced neurite outgrowth in drug-treated NT2 cells compared to vehicle-treated cells; a negative (−) designation indicating weak or no evidence of enhanced neurite outgrowth in drug-treated NT2 cells compared to vehicle-treated cells; conditions: 1 or 10 μM, 48 h, visual inspection vs vehicle (0.1% DMSO)
Source text: Classic psychedelics such as psilocybin and DMT show potential to treat anxiety and depression, and it has been theorized that such long-term improvements arise because these drugs rapidly and lastingly stimulate neuroplasticity (Calder and Hasler, 2023, Neuropsychopharmacol. 48:104-112). Thus, it was of interest to determine the potential of new compounds as neuroplastogens. Herein, we assess the capacity of various compounds to enhance neurite outgrowth in human model (NT2) neurons.
Human NT2/D1 precursor cells were purchased from the American Type Culture Collection (ATCC, Manassas, VA, USA). Neuronal differentiation was carried out as previously described (Roloff et al., 2015, PloS ONE 10:e0118536) with minor modifications. Firstly, NT2/D1 cells were seeded in T-25 suspension culture flasks (REF #690190, Greiner bio-one, Germany). Each flask contains a minimum of 5×10^6 cells in 10 ml of DMEM/F12 supplemented with 10% fetal bovine serum (FBS), 1% penicillin and streptomycin and 10 μM retinoic acid (RA) medium to start neuronal differentiation. The cells were cultured for 3 days in free floating medium. At the end of the incubation cells were trypsinized and collected by centrifugation, mechanically dispersed, and counted. Counted cells were seeded along Poly D-Lysine (PDL) coated cover slips (12 mm; diameter round, Fisher Scientific; GG-12-PDL) containing a minimum of 0.1×10^5 cells in culture medium without RA. The next day culture medium was replaced with RA medium containing 2% of FBS. These cells cultured for 5 days and two days later, RA medium was changed.
After cells had successfully attached and established along coverslips, the RA medium was replaced with new medium containing 2% FBS and one of the following: (1) test compound (1 or 10 μM), (2) RhoK (ROCK) inhibitor Y-27632 (1 μM) as a positive control (Dihydrochloride; Sigma-Aldrich) (Roloff et al., 2015, PloS ONE 10:e0118536); (3) DMT (1 or 10 μM) as a positive control (Calder and Hasler, 2023, Neuropsychopharmacol. 48:104-112), or (4) vehicle (0.1% DMSO) as a negative control. These cells were incubated for 48 hours under standard conditions (370C, 5% CO2). The cells cultured along coverslips were collected after 48 hours of treatment. The coverslips washed with calcium chloride and magnesium chloride-free phosphate buffered saline (PBS) pH 7.4 (Gibco, #70011-044) and fixed in paraformaldehyde (PFA) 4% in PBS (#J61899, thermoscientific) for 15 min at room temperature (RT) and washed three times with 0.01% of Triton-X100 in PBS (PBST) to remove remaining PFA and to permeabilize the cells. Non-specific binding sites were blocked with 5% of Bovine Serum Albumin (BSA) solution (#9048-46-8, Millipore) in PBST for 60 minutes at RT. Rabbit monoclonal antibody β-III-tubulin (1:5,000, ab52623, Abcam) was applied overnight (O/N) at 4° C. Next day cells are washed three times in PBST, neurons were incubated with secondary antibody Donkey anti-rabbit IgG(H+L) Alexa Fluor™ Plus488 (1:5000 #A32790, Invitrogen) for 1 hour at RT. These coverslips were mounted on Gluoromount-G™, with 4′6-diamidino-2′henylindoldihydrochloride (DAPI) (#E141818, Invitrogen). The immunofluorescence images were analyzed using an Olympus VS110 slide scanner microscope.
B-III-Tubulin immunofluorescence was quantified using ImageJ. Briefly, Corrected Total Cell Fluorescence (CTCF) was acquired for at least ˜8-10 representative cells, where CTCF=Integrated Density−[Area of selected cell*Mean Fluorescence of background]. The CTCF values, referred to herein as ‘signal intensities’, were used to calculate overall means±SD for each treatment. One-Way ANOVA was used to compare treatments. Further, the mean of each treatment was compared with the mean of the control treatment (RA-differentiated cells treated with vehicle, 0.1% DMSO) using Dunnett's multiple comparison procedure. […]

[4] = molecular target: T2, human serotonin transporter (SERT) (Homo sapiens, UniProt P31645); experiment: biochemical; type: binding; conditions: 1 nM imipramine; membranes containing human SERT; read-out: SERT, Ki
T2 construct: purchased PerkinElmer RBHSTM400UA
T2 sequence (P31645 whole entry): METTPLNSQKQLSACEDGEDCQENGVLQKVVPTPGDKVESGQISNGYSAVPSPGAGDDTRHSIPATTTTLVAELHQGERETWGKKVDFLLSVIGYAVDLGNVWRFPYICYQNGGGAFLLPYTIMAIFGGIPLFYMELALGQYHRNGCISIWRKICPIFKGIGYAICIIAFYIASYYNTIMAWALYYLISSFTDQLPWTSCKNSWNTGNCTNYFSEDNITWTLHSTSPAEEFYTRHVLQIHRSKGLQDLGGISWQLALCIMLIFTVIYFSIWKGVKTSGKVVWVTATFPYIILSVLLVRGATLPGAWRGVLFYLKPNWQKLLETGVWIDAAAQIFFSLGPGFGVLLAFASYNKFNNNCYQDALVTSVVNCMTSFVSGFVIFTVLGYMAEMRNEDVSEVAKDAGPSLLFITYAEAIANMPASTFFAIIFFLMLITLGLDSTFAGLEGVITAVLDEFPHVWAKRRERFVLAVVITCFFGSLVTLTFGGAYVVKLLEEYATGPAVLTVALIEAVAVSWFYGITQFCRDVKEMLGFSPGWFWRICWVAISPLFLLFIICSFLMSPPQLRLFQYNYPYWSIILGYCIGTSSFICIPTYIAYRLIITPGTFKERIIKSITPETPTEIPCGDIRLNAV
Description: A commonly applied SERT binding assay involves competition binding assays employing radiolabelled ligands. […] Radioactive binding assays were carried out using the Scintillation Proximity Assay (SPA). For saturation binding assay, mixtures of 9 μg of membrane containing human SERT was pre-coupled to 1 mg of SPA beads at room temperature in a tube rotator for 1 hour in binding buffer (50 mM Tris-HCl pH7.4, 120 mM NaCl, 5 mM KCl, 1 mM ascorbic acid, 10 μM pargyline HCl). […] After incubation, the samples are read on a MicroBeta 2 Microplate Counter. Non-specific binding was carried out in the presence of 200 μM of clomipramine hydrochloride (C7291-1G, Sigma). Equilibrium binding constant for imipramine (KD) was determined from saturation binding curve using one-site saturation binding analysis from GraphPad PRISM software (Version 9.2.0). All test compounds were dissolved to 100 mM in DMSO and dilutions were carried out in assay buffer. […] Ki values were calculated from the competition displacement data using the competitive binding analysis from GraphPad PRISM software. […] Vehicle (DMSO) without drug was used as a negative control.

Compound	Ki [1]	mean HTR [2]	HTR compared with the HTR response for 5-Br-DMT (one-way ANOVA, Dunnett) [2]	Evidence of neurite outgrowth: Yes (+) or No (−) [3]	Ki [4] [µM]
CC(=O)c1[nH]c2cc(F)c(N3CCOCC3)cc2c1CCN(C)C [Compound (IX)]	14.2 µM	9.25	not statistically significantly higher	−	
CN(C)CCc1c[nH]c2cc(N3CCCC3)c(F)cc12 [Compound (XIV)]	3.1 µM and 3.06 µM	9.0	not statistically significantly higher	+	
CCN(CC)CCc1c[nH]c2cc(F)ccc12 [Compound 6-F-DET, 6-fluoro-diethyltryptamine, reference compound]	0.35 µM			+	
C[C@@H](N)[C@H]1CC[C@H](C(=O)Nc2ccncc2)CC1 [RhoK, reference compound]				+	
COc1ccc2[nH]cc(CCN(C)C)c2c1 [Compound 5-MeO-DMT, 5-methoxy-dimethyltryptamine, reference compound]				+	
CN(C)CCc1c[nH]c2cc(Cl)cc(N3CCOCC3)c12 [Compound (XXII)]		6.5	not statistically significantly higher		
CN(C)CCc1c[nH]c2cc(N3CCOCC3)cc(F)c12 [Compound (XVI)]	6.2 µM and 6.19 µM	6.75	not statistically significantly higher		
CN(C)CCc1c[nH]c2cc(F)c(N3CCN(c4ccccc4)CC3)cc12 [Compound (XXVI)]		8.25	not statistically significantly higher		
CN(C)CCc1c[nH]c2cc(F)cc(N3CCCC3)c12 [Compound (XIII)]	2.96 µM	7.75	not statistically significantly higher	+	
N[C@@H](Cc1c[nH]c2ccccc12)C(=O)O [tryptophan, reference compound]	> 1000 µM				
CN(C)CCc1c[nH]c2cc(F)c(N3CCOCC3)cc12 [Compound (VII)]	63.9 µM	7.75	not statistically significantly higher	+	
CN(C)CCc1c[nH]c2cc(N3CCOCC3)c(F)cc12 [Compound (XI)]	0.71 µM	10.5		−	
COc1cc(CCN)c(OC)cc1Br [Compound 2C-B, reference compound]					11.4
CCN(CC)CCc1c[nH]c2cc(F)cc(N3CCOCC3)c12 [Compound (XXVII)]	5.4 µM and 5.38 µM	8.0	not statistically significantly higher	−	
CN(C)CCc1c[nH]c2cc(N3CCOCC3)ccc12 [Compound (VIII)]	10.9 µM	8.0	not statistically significantly higher	−	
CN(C)CCc1c[nH]c2ccc(N3CCC3)cc12 [Compound (VI)]	12 µM	11.5		+	
CN(C)CCc1c[nH]c2cc(N3CCN(C)CC3)cc(F)c12 [Compound (XXI)]		9.25	not statistically significantly higher		
5-bromo-dimethyltryptamine [Compound 5-Br-DMT, reference compound]				+	
CN(C)CCc1c[nH]c2cc(Cl)cc(N3CCN(C)CC3)c12 [Compound (XXIII)]	12.5 µM	7.25	not statistically significantly higher	+	
CN(C)CCc1c[nH]c2cc(F)cc(N3CCN(C)CC3)c12 [Compound (XIX)]		11.5			
CN(C)CCc1c[nH]c2cc(F)c(N3CCN(C)CC3)cc12 [Compound (XXV)]		8.5	not statistically significantly higher	−	
CN(CCc1c[nH]c2cc(N3CCOCC3)c(F)cc12)Cc1ccccc1 [Compound (XX)]	25.6 µM	7.25	not statistically significantly higher	+	
COc1ccc2c3c([nH]c2c1)CCN(C)CC3 [TBG, tabernanthalog, reference compound]	0.8 µM			+	
CN(C)CCc1c[nH]c2ccc(N3CCOCC3)cc12 [Compound (V)]	15 µM	7.8	not statistically significantly higher	+	
CN(C)CCc1c[nH]c2cc(N3CCCC3)ccc12 [Compound (X)]	7.8 µM	7.25	not statistically significantly higher	+	
